For 22 compounds, EC50 results are on record in ChEMBL document CHEMBL1145783, “Development of an orexin-2 receptor selective agonist, [Ala(11), D-Leu(15)]orexin-B” (Bioorg Med Chem Lett, 2003).

The EC50 is the concentration at which the effect is half-maximal.

Residues, ends and D or L forms follow the SMILES beside them. *: point of attachment. X1 = C[C@H](NC(=O)N1CCC[C@H]1C(=O)NCC(=O)N[C@@H](CO)C(=O)N[C@@H](CCCN=C(N)N)C(N)=O)C(=O)NC(=O)CN* Where only a bound is given, the exact number is not on record here.

The assay concerns the target T1, Orexin receptor type 2 (Homo sapiens, UniProt O43614).
T1 sequence (O43614 whole entry): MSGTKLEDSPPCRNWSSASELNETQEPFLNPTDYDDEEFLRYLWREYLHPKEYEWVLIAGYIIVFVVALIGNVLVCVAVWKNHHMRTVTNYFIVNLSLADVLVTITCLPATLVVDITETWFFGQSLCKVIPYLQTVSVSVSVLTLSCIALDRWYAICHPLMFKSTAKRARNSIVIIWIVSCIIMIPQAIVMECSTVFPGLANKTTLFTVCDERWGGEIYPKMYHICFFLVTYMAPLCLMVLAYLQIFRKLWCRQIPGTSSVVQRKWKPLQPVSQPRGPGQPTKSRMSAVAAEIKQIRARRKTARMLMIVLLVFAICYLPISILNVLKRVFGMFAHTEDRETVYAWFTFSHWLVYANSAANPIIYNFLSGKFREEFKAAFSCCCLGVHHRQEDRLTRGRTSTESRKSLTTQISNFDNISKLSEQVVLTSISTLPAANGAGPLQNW
Briefly: Agonist activity against human orexin 2 receptor; EC50; nM. In kind it is functional.
`CC[C@H](C)[C@H](NC(=O)[C@H](CC(C)C)NC(=O)[C@@H](NC(=O)[C@H](N)CCSC)[C@@H](C)O)C(=O)NCC(=O)N[C@@H](C)C(=O)N[C@@H](C)C(=O)N[C@@H](Cc1c[nH]cn1)C(=O)N[C@@H](CC(N)=O)C(=O)NCC(=O)N[C@@H](CO)C(=O)N[C@@H](C)C(=O)N[C@@H](CCC(N)=O)C(=O)N[C@@H](CC(C)C)C(=O)N[C@@H](CC(C)C)C(=O)N[C@@H](CCCN=C(N)N)C(=O)N[C@@H](CCC(N)=O)C(=O)N[C@@H](CC(C)C)C(=O)N[C@@H](CCCN=C(N)N)C(=O)NCC(=O)N[C@@H](CCC(N)=O)C(=O)N[C@@H](CC(C)C)C(=O)NCC(=O)N1CCC[C@H]1C(=O)N1CCC[C@H]1C(=O)NCC(=O)N[C@@H](CO)C(=O)N[C@@H](CCCN=C(N)N)C(N)=O` had a concentration giving a half-maximal response (EC50) greater than 290 nM. In the case of H-MTLIGAAHNGSAQLLRQLRGQAGPPGSR-NH2, the EC50 turned out to be 0.12 nM.

Take H-MTLIGAAHNGSAQLLRQLRGQLGPPGAR-NH2: the midpoint of the response, the EC50, lay at 0.22 nM.

`CC[C@H](C)[C@H](NC(=O)[C@H](CC(C)C)NC(=O)[C@@H](NC(=O)[C@@H](N)CCSC)[C@@H](C)O)C(=O)NCC(=O)N[C@@H](C)C(=O)N[C@@H](C)C(=O)N[C@@H](Cc1c[nH]cn1)C(=O)N[C@@H](CC(N)=O)C(=O)NCC(=O)N[C@@H](CO)C(=O)N[C@@H](C)C(=O)N[C@@H](CCC(N)=O)C(=O)N[C@@H](CC(C)C)C(=O)N[C@@H](CC(C)C)C(=O)N[C@@H](CCCN=C(N)N)C(=O)N[C@@H](CCC(N)=O)C(=O)N[C@@H](CC(C)C)C(=O)N[C@@H](CCCN=C(N)N)C(=O)NCC(=O)N[C@@H](CCC(N)=O)C(=O)N[C@@H](CC(C)C)C(=O)NCC(=O)NC(=O)[C@H](C)NC(=O)N1CCC[C@H]1C(=O)NCC(=O)N[C@@H](CO)C(=O)N[C@@H](CCCN=C(N)N)C(N)=O` (H-MTLIGAAHNGSAQLLRQLRGQL-X1) showed an EC50 of 0.29 nM. Consider H-MTLIGAAHNGSAQLLRQLRGQLGPPGSA-NH2, for which it took 0.2 nM to reach a half-maximal effect (EC50). With `CC[C@H](C)[C@H](NC(=O)[C@H](CC(C)C)NC(=O)[C@@H](NC(=O)[C@@H](N)CCSC)[C@@H](C)O)C(=O)NCC(=O)N[C@@H](C)C(=O)N[C@@H](C)C(=O)N[C@@H](Cc1c[nH]cn1)C(=O)N[C@@H](CC(N)=O)C(=O)NCC(=O)N[C@@H](CO)C(=O)N[C@@H](C)C(=O)N[C@@H](CCC(N)=O)C(=O)N[C@@H](CC(C)C)C(=O)N[C@@H](CC(C)C)C(=O)N[C@@H](CCCN=C(N)N)C(=O)N[C@@H](CCC(N)=O)C(=O)N[C@@H](CC(C)C)C(=O)N[C@@H](CCCN=C(N)N)C(=O)NCC(=O)N[C@@H](CCC(N)=O)C(=O)N[C@@H](CC(C)C)C(=O)N[C@H](C)C(=O)N1CCC[C@H]1C(=O)N1CCC[C@H]1C(=O)NCC(=O)N[C@@H](CO)C(=O)N[C@@H](CCCN=C(N)N)C(N)=O` the figure was 0.2 nM. For H-MTLIGGAHNGSAQLLRQLRGQLGPPGSR-NH2 the value was 0.84 nM; for H-MTLIGAAANGSAQLLRQLRGQLGPPGSR-NH2, 0.72 nM; for H-MTLIGAAHAGSAQLLRQLRGQLGPPGSR-NH2, 2.3 nM. With H-MTLIGAAHNGSAQLARQLRGQLGPPGSR-NH2 the figure was 0.065 nM. The compound `CSCC[C@H](N)C(=O)N[C@H](C(=O)N[C@@H](CC(C)C)C(=O)N[C@H](C)C(=O)NCC(=O)N[C@@H](C)C(=O)N[C@@H](C)C(=O)N[C@@H](Cc1c[nH]cn1)C(=O)N[C@@H](CC(N)=O)C(=O)NCC(=O)N[C@@H](CO)C(=O)N[C@@H](C)C(=O)N[C@@H](CCC(N)=O)C(=O)N[C@@H](CC(C)C)C(=O)N[C@@H](CC(C)C)C(=O)N[C@@H](CCCN=C(N)N)C(=O)N[C@@H](CCC(N)=O)C(=O)N[C@@H](CC(C)C)C(=O)N[C@@H](CCCN=C(N)N)C(=O)NCC(=O)N[C@@H](CCC(N)=O)C(=O)N[C@@H](CC(C)C)C(=O)NCC(=O)N1CCC[C@H]1C(=O)N1CCC[C@H]1C(=O)NCC(=O)N[C@@H](CO)C(=O)N[C@@H](CCCN=C(N)N)C(N)=O)[C@@H](C)O` registered an EC50 greater than 390 nM. For `CC[C@H](C)[C@H](NC(=O)[C@H](CC(C)C)NC(=O)[C@@H](NC(=O)[C@@H](N)CCSC)[C@@H](C)O)C(=O)NCC(=O)N[C@@H](C)C(=O)N[C@@H](C)C(=O)N[C@@H](Cc1c[nH]cn1)C(=O)N[C@@H](CC(N)=O)C(=O)NCC(=O)N[C@@H](CO)C(=O)N[C@@H](C)C(=O)N[C@@H](CCC(N)=O)C(=O)N[C@@H](CC(C)C)C(=O)N[C@@H](CC(C)C)C(=O)N[C@@H](CCCN=C(N)N)C(=O)N[C@@H](CCC(N)=O)C(=O)N[C@@H](CC(C)C)C(=O)N[C@@H](CCCN=C(N)N)C(=O)N[C@@H](C)C(=O)N[C@@H](CCC(N)=O)C(=O)N[C@@H](CC(C)C)C(=O)NCC(=O)N1CCC[C@H]1C(=O)N1CCC[C@H]1C(=O)NCC(=O)N[C@@H](CO)C(=O)N[C@@H](CCCN=C(N)N)C(N)=O` the value was 0.2 nM; for `CC[C@H](C)[C@H](NC(=O)[C@H](CC(C)C)NC(=O)[C@H](NC(=O)[C@@H](N)CCSC)[C@@H](C)O)C(=O)NCC(=O)N[C@@H](C)C(=O)N[C@@H](C)C(=O)N[C@@H](Cc1cnc[nH]1)C(=O)N[C@@H](CC(N)=O)C(=O)NCC(=O)N[C@@H](CO)C(=O)N[C@@H](C)C(=O)N[C@@H](CCC(N)=O)C(=O)N[C@@H](CC(C)C)C(=O)N[C@@H](CC(C)C)C(=O)N[C@@H](CCCN=C(N)N)C(=O)N[C@@H](CCC(N)=O)C(=O)N[C@@H](CC(C)C)C(=O)N[C@@H](CCCN=C(N)N)C(=O)NCC(=O)N[C@@H](CCC(N)=O)C(=O)N[C@@H](CC(C)C)C(=O)NCC(=O)N1CCC[C@H]1C(=O)N1CCC[C@H]1C(=O)NCC(=O)N[C@@H](CO)C(=O)N[C@@H](CCCN=C(N)N)C(N)=O`, greater than 260 nM. With `CC[C@H](C)[C@H](NC(=O)[C@H](CC(C)C)NC(=O)[C@@H](NC(=O)[C@@H](N)CCSC)[C@@H](C)O)C(=O)NCC(=O)N[C@@H](C)C(=O)N[C@@H](C)C(=O)N[C@@H](Cc1cnc[nH]1)C(=O)N[C@@H](CC(N)=O)C(=O)NCC(=O)N[C@@H](CO)C(=O)N[C@@H](C)C(=O)N[C@@H](CCC(N)=O)C(=O)N[C@@H](CC(C)C)C(=O)N[C@@H](CC(C)C)C(=O)N[C@H](CCCN=C(N)N)C(=O)N[C@@H](CCC(N)=O)C(=O)N[C@@H](CC(C)C)C(=O)N[C@@H](CCCN=C(N)N)C(=O)NCC(=O)N[C@@H](CCC(N)=O)C(=O)N[C@@H](CC(C)C)C(=O)NCC(=O)N1CCC[C@H]1C(=O)N1CCC[C@H]1C(=O)NCC(=O)N[C@@H](CO)C(=O)N[C@@H](CCCN=C(N)N)C(N)=O` the figure was 0.41 nM; with H-MTLIGAGHNGSAQLLRQLRGQLGPPGSR-NH2, 0.27 nM; with H-MTLIGAAHNGAAQLLRQLRGQLGPPGSR-NH2, 1.6 nM. Compound `CC[C@H](C)[C@H](NC(=O)[C@H](CC(C)C)NC(=O)[C@@H](NC(=O)[C@@H](N)CCSC)[C@@H](C)O)C(=O)NCC(=O)N[C@@H](C)C(=O)N[C@@H](C)C(=O)N[C@@H](Cc1cnc[nH]1)C(=O)N[C@@H](CC(N)=O)C(=O)NCC(=O)N[C@@H](CO)C(=O)N[C@@H](C)C(=O)N[C@@H](CCC(N)=O)C(=O)N[C@@H](CC(C)C)C(=O)N[C@@H](CC(C)C)C(=O)N[C@@H](CCCN=C(N)N)C(=O)N[C@@H](CCC(N)=O)C(=O)N[C@H](CC(C)C)C(=O)N[C@@H](CCCN=C(N)N)C(=O)NCC(=O)N[C@@H](CCC(N)=O)C(=O)N[C@@H](CC(C)C)C(=O)NCC(=O)N1CCC[C@H]1C(=O)N1CCC[C@H]1C(=O)NCC(=O)N[C@@H](CO)C(=O)N[C@@H](CCCN=C(N)N)C(N)=O` yielded an EC50 of 0.6 nM. With H-MALIGAAHNGSAQLLRQLRGQLGPPGSR-NH2 the figure was 9.7 nM; with `CC[C@H](C)[C@H](NC(=O)[C@H](CC(C)C)NC(=O)[C@@H](NC(=O)[C@@H](N)CCSC)[C@@H](C)O)C(=O)NCC(=O)N[C@@H](C)C(=O)N[C@@H](C)C(=O)N[C@@H](Cc1c[nH]cn1)C(=O)N[C@@H](CC(N)=O)C(=O)NCC(=O)N[C@@H](CO)C(=O)N[C@@H](C)C(=O)N[C@@H](CCC(N)=O)C(=O)N[C@@H](CC(C)C)C(=O)N[C@@H](CC(C)C)C(=O)N[C@@H](CCCN=C(N)N)C(=O)N[C@@H](CCC(N)=O)C(=O)N[C@@H](CC(C)C)C(=O)N[C@@H](CCCN=C(N)N)C(=O)NCC(=O)N[C@@H](CCC(N)=O)C(=O)N[C@@H](CC(C)C)C(=O)NCC(=O)N1CCC[C@@H]1C(=O)N1CCC[C@H]1C(=O)NCC(=O)N[C@@H](CO)C(=O)N[C@@H](CCCN=C(N)N)C(N)=O`, 0.16 nM; with H-MTLIGAAHNGSAQLLRALRGQLGPPGSR-NH2, 0.23 nM. With `CC[C@H](C)[C@H](NC(=O)[C@H](CC(C)C)NC(=O)[C@@H](NC(=O)[C@@H](N)CCSC)[C@@H](C)O)C(=O)NCC(=O)N[C@@H](C)C(=O)N[C@@H](C)C(=O)N[C@@H](Cc1c[nH]cn1)C(=O)N[C@@H](CC(N)=O)C(=O)NCC(=O)N[C@@H](CO)C(=O)N[C@@H](C)C(=O)N[C@@H](CCC(N)=O)C(=O)N[C@@H](CC(C)C)C(=O)N[C@@H](CC(C)C)C(=O)N[C@@H](CCCN=C(N)N)C(=O)N[C@@H](CCC(N)=O)C(=O)N[C@@H](CC(C)C)C(=O)N[C@H](CCCN=C(N)N)C(=O)NCC(=O)N[C@@H](CCC(N)=O)C(=O)N[C@@H](CC(C)C)C(=O)NCC(=O)N1CCC[C@H]1C(=O)N1CCC[C@H]1C(=O)NCC(=O)N[C@@H](CO)C(=O)N[C@@H](CCCN=C(N)N)C(N)=O` the figure was 0.87 nM; with `CC[C@H](C)[C@H](NC(=O)[C@H](CC(C)C)NC(=O)[C@@H](NC(=O)[C@@H](N)CCSC)[C@@H](C)O)C(=O)NCC(=O)N[C@@H](C)C(=O)N[C@@H](C)C(=O)N[C@@H](Cc1c[nH]cn1)C(=O)N[C@@H](CC(N)=O)C(=O)NCC(=O)N[C@@H](CO)C(=O)N[C@@H](C)C(=O)N[C@@H](CCC(N)=O)C(=O)N[C@@H](CC(C)C)C(=O)N[C@@H](CC(C)C)C(=O)N[C@@H](CCCN=C(N)N)C(=O)N[C@@H](CCC(N)=O)C(=O)N[C@@H](CC(C)C)C(=O)N[C@@H](CCCN=C(N)N)C(=O)NCC(=O)N[C@@H](CCC(N)=O)C(=O)N[C@@H](CC(C)C)C(=O)NCC(=O)N1CCC[C@H]1C(=O)N1CCC[C@H]1C(=O)NCC(=O)N[C@H](CO)C(=O)N[C@@H](CCCN=C(N)N)C(N)=O`, 0.15 nM.
